Results reported in PubChem BioAssay (NCI).
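Assay format: 96-well plates, 48-hour exposure. GI50 is the concentration that inhibits growth by half. TGI denotes the concentration required for complete inhibition of growth.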

Tests used:
Assay in all cases: NCI anticancer screen, dose series, 48 h
786-0 renal = system: 786-0 renal
A498 renal = system: A498 renal
A549 NSCLC = system: A549 NSCLC
ACHN renal = system: ACHN renal
BT-549 breast = system: BT-549 breast
CAKI-1 renal = system: CAKI-1 renal
COLO 205 colon = system: COLO 205 colon
DU-145 prostate = system: DU-145 prostate
EKVX NSCLC = system: EKVX NSCLC
HCC-2998 colon = system: HCC-2998 colon
HCT-116 colon = system: HCT-116 colon
HCT-15 colon = system: HCT-15 colon
HL-60(TB) leukemia = system: HL-60(TB) leukemia
HOP-62 NSCLC = system: HOP-62 NSCLC
HOP-92 NSCLC = system: HOP-92 NSCLC
HS 578T breast = system: HS 578T breast
HT29 colon = system: HT29 colon
KM12 colon = system: KM12 colon
LOX IMVI melanoma = system: LOX IMVI melanoma
M14 melanoma = system: M14 melanoma
MALME-3M melanoma = system: MALME-3M melanoma
MCF7 breast = system: MCF7 breast
MDA-MB-231 breast = system: MDA-MB-231 breast
MDA-MB-435 = system: MDA-MB-435
MOLT-4 leukemia = system: MOLT-4 leukemia
NCI-H226 lung = system: NCI-H226 lung
NCI-H23 lung = system: NCI-H23 lung
NCI-H460 lung = system: NCI-H460 lung
NCI-H522 lung = system: NCI-H522 lung
NCI/ADR-RES ovarian = system: NCI/ADR-RES ovarian
OVCAR-3 ovarian = system: OVCAR-3 ovarian
OVCAR-4 ovarian = system: OVCAR-4 ovarian
OVCAR-5 ovarian = system: OVCAR-5 ovarian
OVCAR-8 ovarian = system: OVCAR-8 ovarian
PC-3 prostate = system: PC-3 prostate
RPMI-8226 leukemia = system: RPMI-8226 leukemia
RXF 393 renal = system: RXF 393 renal
SF-268 CNS = system: SF-268 CNS
SF-295 CNS = system: SF-295 CNS
SF-539 CNS = system: SF-539 CNS
SK-MEL-2 melanoma = system: SK-MEL-2 melanoma
SK-MEL-28 melanoma = system: SK-MEL-28 melanoma
SK-MEL-5 melanoma = system: SK-MEL-5 melanoma
SK-OV-3 ovarian = system: SK-OV-3 ovarian
SN12C renal = system: SN12C renal
SNB-19 CNS = system: SNB-19 CNS
SNB-75 CNS = system: SNB-75 CNS
SR leukemia = system: SR leukemia
SW-620 colon = system: SW-620 colon
T-47D breast = system: T-47D breast
TK-10 renal = system: TK-10 renal
U251 CNS = system: U251 CNS
UACC-257 melanoma = system: UACC-257 melanoma
UACC-62 melanoma = system: UACC-62 melanoma
UO-31 renal = system: UO-31 renal

`NCCCCCCCCCCn1c2c(c3ccccc3c1=O)C(=O)c1ccccc1-2` showed a GI50 (786-0 renal) of 4.8 µM, a TGI (786-0 renal) of 19.4 µM and a GI50 (A498 renal) of 13.1 µM. It also gave a TGI (A498 renal) of 33.7 µM, a GI50 (A549 NSCLC) of 11.5 µM and a TGI (A549 NSCLC) of 37 µM. The GI50 (ACHN renal) was 6 µM, the TGI (ACHN renal) was 18.2 µM and the GI50 (BT-549 breast) was 5.64 µM. It also gave a TGI (BT-549 breast) of 19.8 µM, a GI50 (CAKI-1 renal) of 14.7 µM and a TGI (CAKI-1 renal) of 32.1 µM. For the same molecule, the GI50 (COLO 205 colon) was 3.58 µM, the TGI (COLO 205 colon) was 12.7 µM and the GI50 (DU-145 prostate) was 3.46 µM. It also gave a TGI (DU-145 prostate) of 11.2 µM, a GI50 (EKVX NSCLC) of 17.3 µM and a TGI (EKVX NSCLC) of 37.8 µM. The GI50 (HCC-2998 colon) was 6.14 µM, the TGI (HCC-2998 colon) was 19 µM and the GI50 (HCT-116 colon) was 2.74 µM. It also gave a TGI (HCT-116 colon) of 7.66 µM, a GI50 (HCT-15 colon) of 4.51 µM and a TGI (HCT-15 colon) of 16.9 µM. For the same molecule, the GI50 (HL-60(TB) leukemia) was 1.77 µM, the TGI (HL-60(TB) leukemia) was 3.44 µM and the GI50 (HOP-62 NSCLC) was 4.84 µM. It also gave a TGI (HOP-62 NSCLC) of 17.3 µM, a GI50 (HOP-92 NSCLC) of 2.74 µM and a TGI (HOP-92 NSCLC) of 7.49 µM. For the same molecule, the GI50 (HS 578T breast) was 13.6 µM, the TGI (HS 578T breast) was 36.4 µM and the GI50 (HT29 colon) was 1.89 µM. The TGI (HT29 colon) was 3.75 µM, the GI50 (KM12 colon) was 5.85 µM and the TGI (KM12 colon) was 21.9 µM. It also gave a GI50 (LOX IMVI melanoma) of 2.65 µM, a TGI (LOX IMVI melanoma) of 7.06 µM and a GI50 (M14 melanoma) of 4.72 µM. For the same molecule, the TGI (M14 melanoma) was 16 µM, the GI50 (MALME-3M melanoma) was 13.2 µM and the TGI (MALME-3M melanoma) was 33.9 µM. For the same molecule, the GI50 (MCF7 breast) was 4.67 µM, the TGI (MCF7 breast) was 20.2 µM and the GI50 (MDA-MB-231 breast) was 5.22 µM. The TGI (MDA-MB-231 breast) was 18 µM, the GI50 (MDA-MB-435) was 11.8 µM and the TGI (MDA-MB-435) was 27.9 µM. It also gave a GI50 (MOLT-4 leukemia) of 1.81 µM, a TGI (MOLT-4 leukemia) of 3.32 µM and a GI50 (NCI-H226 lung) of 20.4 µM. The TGI (NCI-H226 lung) was 47.1 µM, the GI50 (NCI-H23 lung) was 14.9 µM and the TGI (NCI-H23 lung) was 32.6 µM. For the same molecule, the GI50 (NCI-H460 lung) was 4.06 µM, the TGI (NCI-H460 lung) was 18.5 µM and the GI50 (NCI-H522 lung) was 2.84 µM. For the same molecule, the TGI (NCI-H522 lung) was 8.4 µM, the GI50 (NCI/ADR-RES ovarian) was 10.9 µM and the TGI (NCI/ADR-RES ovarian) was 28.5 µM. The GI50 (OVCAR-3 ovarian) was 10.8 µM, the TGI (OVCAR-3 ovarian) was 27.3 µM and the GI50 (OVCAR-4 ovarian) was 8.7 µM. The TGI (OVCAR-4 ovarian) was 25.1 µM, the GI50 (OVCAR-5 ovarian) was 4.52 µM and the TGI (OVCAR-5 ovarian) was 15.3 µM. For the same molecule, the GI50 (OVCAR-8 ovarian) was 3.34 µM, the TGI (OVCAR-8 ovarian) was 56.9 µM and the GI50 (PC-3 prostate) was 2.16 µM. The TGI (PC-3 prostate) was 4.54 µM, the GI50 (RPMI-8226 leukemia) was 2.16 µM and the TGI (RPMI-8226 leukemia) was 4.47 µM. The GI50 (RXF 393 renal) was 15.2 µM, the TGI (RXF 393 renal) was 36.7 µM and the GI50 (SF-268 CNS) was 11.7 µM. For the same molecule, the TGI (SF-268 CNS) was 50.3 µM, the GI50 (SF-295 CNS) was 6.48 µM and the TGI (SF-295 CNS) was 22 µM. For the same molecule, the GI50 (SF-539 CNS) was 1.83 µM, the TGI (SF-539 CNS) was 3.52 µM and the GI50 (SK-MEL-2 melanoma) was 2.04 µM. For the same molecule, the TGI (SK-MEL-2 melanoma) was 4.41 µM, the GI50 (SK-MEL-28 melanoma) was 3.97 µM and the TGI (SK-MEL-28 melanoma) was 14.8 µM. The GI50 (SK-MEL-5 melanoma) was 8.25 µM, the TGI (SK-MEL-5 melanoma) was 21.3 µM and the GI50 (SK-OV-3 ovarian) was 18.7 µM. It also gave a TGI (SK-OV-3 ovarian) of 35 µM, a GI50 (SN12C renal) of 3.32 µM and a TGI (SN12C renal) of 9.41 µM. The GI50 (SNB-19 CNS) was 8.31 µM, the TGI (SNB-19 CNS) was 28 µM and the GI50 (SNB-75 CNS) was 5.01 µM. The TGI (SNB-75 CNS) was 17.5 µM, the GI50 (SR leukemia) was 1.86 µM and the TGI (SR leukemia) was 3.53 µM. The GI50 (SW-620 colon) was 2.33 µM, the TGI (SW-620 colon) was 5.5 µM and the GI50 (T-47D breast) was 11.4 µM. It also gave a TGI (T-47D breast) of 39 µM, a GI50 (TK-10 renal) of 6.55 µM and a TGI (TK-10 renal) of 20.9 µM. For the same molecule, the GI50 (U251 CNS) was 10.1 µM, the TGI (U251 CNS) was 24.7 µM and the GI50 (UACC-257 melanoma) was 21.2 µM. For the same molecule, the TGI (UACC-257 melanoma) was 44.8 µM, the GI50 (UACC-62 melanoma) was 13.7 µM and the TGI (UACC-62 melanoma) was 29.4 µM. For the same molecule, the GI50 (UO-31 renal) was 6.16 µM and the TGI (UO-31 renal) was 18.8 µM.
